Assays:
[1] = system: rat small-intestinal brush border membrane vesicles; assay: Inhibitory effect on 33PO4 uptake into rat small-intestinal brush border membrane vesicles (rapid filtration method); assay type: biochemical; details: 33PO4 uptake into rat small-intestinal BBMVs; test compound 1 µM; reacted for 60 seconds
In short: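 Uptake of ^33PO4 was measured by rapid filtration and liquid scintillation counting of filter-retained vesicles, after quenching with ice-cold 110 mM NaCl/1 mM KH2PO4/10 mM HEPES pH 7.5. Vesicles were brush border membranes from the upper small intestine of female Wistar rats aged 4–5 weeks.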

[2] = system: chronic kidney disease model rat; assay: Suppressive effect on rise in serum creatinine concentration of chronic kidney disease model rat; assay type: in vivo; details: suppression of a rise in serum creatinine concentration, dosage 0.1% in feed for 14 weeks
Procedure: (§1) A group given feed non-supplemented with the test compound was used as a reference pathological group, and a group neither subjected to the kidney removal nor antibody administration and given feed non-supplemented with the test compound was used as a normal group. Fourteen weeks after the start of administration of the test compound, blood was collected from the abdominal aorta and serum was collected. As an indicator of renal damage, serum creatinine concentrations were measured by an enzyme assay (creatinase-sarcosine oxidase-POD method). The rate of suppression of a rise in serum creatinine concentration was determined according to the following expression: Rate (%) of suppression of a rise in serum creatinine concentration = (1−[(Serum creatinine concentration of the test compound−treated pathological group)−(Serum ceatinine concentration of the […])]/[(Serum creatinine concentration of the reference pathological group)−(Serum creatinine concentration of the normal group)]) × 100 [formula]
As a result, the test compound was confirmed to have a suppressive effect on a rise in serum creatinine concentration, namely, a suppressive effect on renal damage. […]

[3] = system: chronic kidney disease model rat; assay: Suppressive effect on calcium deposition in blood vessel of chronic kidney disease model rat; assay type: in vivo; details: suppression of calcium deposition in blood vessel (thoracic aorta)
Procedure: as §1
From the same animal as that in Test Example 7, the thoracic aorta was collected 14 weeks after the start of administration of the test compound, and the dry weight was measured. […]

[4] = system: Adenine-induced renal failure rats; assay: Suppressive effect on rise in serum phosphorus concentration by combined use with sevelamer carbonate (adenine-induced renal failure rat); assay type: in vivo; details: 14 days
Excerpt: Adenine was forcedly administered orally to each Wistar male rat (7-8 weeks old) to impair renal functions and thereby prepare a hyperphosphatemia model (Katsumata K, Kusano K, Hirata M, Tsunemi K, Nagano N, Burke SK, Fukushima N. Sevelamer hydrochloride prevents ectopic calcification and renal osteodystrophy in chronic renal failure rats. Kidney Int. 2003 Aug; 64 (2): 441-50). Each test compound was mixed at a ratio of 0.1% of mass concentration with feed. The animal was fed with a given amount of the feed for 3 days. A group given feed non-supplemented with a test compound was used as a reference pathological group, and an adenine-unadministered group given feed non-supplemented with a test compound was used as a normal group. 3 days after the start of administration of the test compound, blood was collected from the jugular vein, and serum was collected. Serum phosphorus concentrations were measured by the Fiske-Subbarow method. The rate of suppression of a rise in serum phosphorus concentration was determined according to the following expression: Rate (%) of suppression of a rise in serum phosphorus concentration = (1−[(Serum phosphorus concentration of the test compound−treated pathological group)−(Serum phosphorus concentration of the normal group)]/[(Serum phosphorus concentration of the reference pathological group)−(Serum phosphorus concentration of the normal group)]) × 100 [formula]
Adenine-induced renal failure rats were prepared in the same manner as in Test Example 5. […] Serum phosphorus concentrations were measured by the Fiske-Subbarow method. The rate of suppression of a rise in serum phosphorus concentration was determined according to the following expression: Rate (%) of suppression of a rise in serum phosphorus concentration = (1−[(Serum phosphorus concentration of the compound−treated pathological group)−(Serum phorphorus concentration of the normal group)]/[(Serum phosphorus concentration of the reference pathological group)−(Serum phosphorous concentration of the normal group)]) × 100 [formula] […]

[5] = system: chronic kidney disease model rat; assay: Suppressive effect on rise in serum parathyroid hormone concentration of chronic kidney disease model rat; assay type: in vivo; details: suppression of a rise in serum parathyroid hormone concentration
Procedure: as §1
Using serum collected from the same animal as that in test example 7 after 14 weeks from the start of administration of the test compound, concentrations of serum parathyroid hormone were measured by the ELISA method. […]

[6] = dosage 0.1% in feed for 14 weeks
[7] = dosage 0.3% in feed for 14 weeks

COCCN(C)CCOc1ccc(CN2C(=O)C(C(=O)Nc3ccc(C(F)(F)F)cc3-c3cc(C(F)(F)F)ncn3)=C(O)C3(CCCC3)N2C)c(F)c1F [Example 14, 7-[[2,3-Difluoro-4-[2-[2-methoxyethyl(methyl)amino]ethoxy]phenyl]methyl]-10-hydroxy-6-methyl-8-oxo-N-[4-(trifluoromethyl)-2-[6-(trifluoromethyl)pyrimidin-4-yl]phenyl]-6,7-diazaspiro[4.5]dec-9-ene-9-carboxamide]
Rate of uptake inhibition (%) (1 µM) [1]: 29% | Rate of inhibition (%) [2]: 17% | Rate of inhibition (%) [3, 6]: 100% | Rate of inhibition (%) [3, 7]: 100% | Suppression rate of rise in serum phosphorus concentration (%) ([4]; test compound 0.05% by mass in combination with sevelamer carbonate 0.5% by mass in feed): 104% | Suppression rate of rise in serum phosphorus concentration (%) ([4]; test compound 0.05% by mass in feed alone (sevelamer carbonate 0%)): 61% | Suppression rate of rise in serum phosphorus concentration (%) ([4]; test compound 0.1% by mass in feed alone (sevelamer carbonate 0%)): 79% | Rate of inhibition (%) [5, 6]: 13% | Rate of inhibition (%) [5, 7]: 67%

Source: EP3928779A1 (Chugai Seiyaku Kabushiki Kaisha, priority 2014, dated 2016)
